“Also recorded” adds a separate entry of the source. Where two headings read alike, the source gives them in different places. One block for each compound: values may come before it.
Columns and labels:
[1] = test system: Nras(G12D)/MLL-AF9 leukemic cells; assay: Viability of Nras(G12D)/MLL-AF9 leukemic cells cultured with AOA or myriocin; format: cell-based, mouse; details: day 3 (FIG. 33A, 34A)
[2] = test system: human HL60 (Human promyelocytic leukemia) cells; assay: Human HL60 cells cultured with myriocin; format: cell-based; details: day 4 of culture (FIG. 33B)
[3] = test system: Nras(G12D)/MLL-AF9 leukemic cells; assay: Metabolite rescue of isoniazid proliferative block in Nras(G12D)/MLL-AF9 leukemic cells; format: cell-based, mouse; details: exogenous addition of metabolite with isoniazid, day 4 (FIG. 4D-4F)
Excerpt: The average and SEM of fold of cell proliferation are shown. “*” represents p<0.05 of one-way ANOVA test, “**” represents p<0.01 of one-way ANOVA test, “***” represents p<0.001 of one-way ANOVA test. […] The average and SEM of fold of cell proliferation are shown. “*” represents p<0.05 of one-way ANOVA test, “**” represents p<0.01 of one-way ANOVA test, “***” represents p<0.001 of one-way ANOVA test. […] The average and SEM of fold of cell proliferation are shown. “*” represents p<0.05 of one-way ANOVA test, “**” represents p<0.01 of one-way ANOVA test, “***” represents p<0.001 of one-way ANOVA test.

[4] = test system: Nras(G12D)/MLL-AF9 leukemia; assay: AML mouse model: sub-lethally irradiated mice transplanted with Nras(G12D)/MLL-AF9 cells, compound treatment; format: in vivo; details: for animal survival / leukemia disease progression (luciferase signal): daily dosing vs PBS control, isoniazid 90 mg/kg intraperitoneally
Excerpt: PDXK shRNAs were cloned into a doxycycline inducible H2 vector (D9891-25G, Sigma-Aldrich, St. Louis, Mo.). Leukemic cells were infected with viruses encoding shRNAs targeting Renilla luciferase or PDXK, followed by either in vitro culture or transplantation. For in vitro culture experiments, doxycycline was supplemented into culture medium, and the percentage of GFP^+ cells was monitored. For in vivo AML mouse model experiments, the dietary feed of the mice was supplemented with doxycycline, and luciferase expression levels were monitored. For in vivo drug efficacy experiments, leukemic cells were transplanted into sub-lethally irradiated mice. Control PBS or isoniazid (90 mg/kg) was injected 6 hours after transplant and then daily into the transplant containing mice, and luciferase expression levels were monitored. High-performance liquid chromatography-mass spectrometry (HPLC-MS) was performed as previously described in A. M. Intlekofer et al., Nat Chem Biol 13, 494-500 (2017).
For isoniazid injection experiment, Nras(G12D)/MLL-AF9 leukemic cells were collected and resuspended in PBS at a concentration of 5 million/ml. 5-6 weeks old B6-LY5 mice (Charles River Labs, Wilmington Mass.) were sublethally irradiated (450 cGy) and transplanted with 1 million leukemic cells through tail vein injection. PBS or 90 mg/kg isoniazid were intraperitoneally injected daily.
The leukemia disease progress was monitored by in vivo bioluminescent imaging using IVIS Lumina image system (Xenogen) every 3 days. Before imaging, all mice were anesthetized with 2% isoflurane, and anesthesia was also maintained during the image acquisition inside Xenogen dark chamber. 300 mg/kg D-Luciferin (Gold Biotechnology Olivette, Mo.) in PBS at 15 mg/ml was intraperitoneally injected ˜12 minutes before image capturing. The bioluminescence was acquired and quantitatively analyzed by the Living Image software.

human leukemic cells [5] = assay: Viability of human leukemic cell lines cultured with AOA; format: cell-based; details: human Molm13, Thp1, ml2, Nomo1, Semk2, Kasumi leukemic cells, day 3 (FIG. 34B-34G)
PDXK = target: T1, PDXK (Homo sapiens, UniProt O00764); assay: Intracellular PLP levels (PDXK inhibition) in human Molm13 leukemic cells; format: cell-based; details: human Molm13 leukemic cells (FIG. 17B, 18B)
T1 construct: endogenous in cells; host or cells: human Molm13 (MOLM13) AML cells
T1 sequence (O00764 1-312): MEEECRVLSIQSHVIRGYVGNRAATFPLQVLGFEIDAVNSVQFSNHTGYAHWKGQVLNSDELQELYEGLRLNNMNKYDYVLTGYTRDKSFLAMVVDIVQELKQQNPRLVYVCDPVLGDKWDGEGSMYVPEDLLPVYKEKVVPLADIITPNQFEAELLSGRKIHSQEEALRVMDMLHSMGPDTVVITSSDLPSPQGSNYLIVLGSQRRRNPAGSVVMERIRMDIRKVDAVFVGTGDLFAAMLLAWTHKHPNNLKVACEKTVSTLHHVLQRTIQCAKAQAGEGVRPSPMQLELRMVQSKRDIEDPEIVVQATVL
Experimental: (§1) LC-MS grade solvents were purchased from Thermo Fisher Scientific (Waltham, Mass.), metabolite standards were purchased from Sigma (St. Louis, Mo.) unless stated otherwise. Nras(G12D)/MLL-AF9 cells infected with viruses encoding Pdxk shRNAs were harvested after 5 days of doxycycline induction. Human MOLM13 cells infected with viruses encoding Pdxk sgRNAs were harvested at day 11 post infection. Nras(G12D)/MLL-AF9 cells or MOLM13 cells were treated with indicated concentrations of isoniazid and harvested after 5 days treatment.
In each case, 2 million cells were collected by centrifugation at 440×g, media was aspirated and 1004 of ice-cold 10% trichloroacetic acid with or without 100 ng/mL d3-pyridoxal (d3-PL), d3-pyridoxine (d3-PN), d3-pyridoxamine (d3-PM), d3-pyridoxal phosphate (d3-PLP) (IsoSciences LLC, Ambler Pa.) was added for metabolite extraction. For experiments involving isoniazid treatment, cells were washed once with PBS to remove residual drug and minimize post-lysis reactions between isoniazid and PLP, which was confirmed by monitoring the d3-PLP internal standard. After overnight incubation at −80° C., samples were vortexed and transferred to 1.7 mL conical eppendorf tubes and centrifuged at 21,000×g for 20 min at 4° C. The supernatant was transferred to autosampler vials for LC-MS analysis. Vitamin B species separation was performed using an Agilent 1290 infinity pump and XSelect HSS T3 column (150×2.1 mm, 3.5 μm; Waters Corporation, Milford Mass.). Mobile phase A was 0.1% heptaflurobutyric acid (HFBA, Thermo Fisher, Waltham Mass.) and 0.1% formic acid (FA, Thermo Fisher, Waltham Mass.) in water, mobile phase B was 0.1% HFBA and 0.1% FA in acetonitrile. The injection volume was 10 μL and LC gradient conditions were: 0 min: 0% B; 1 min: 0% B; 7 min: 25% B; 8 min: 25% B; 9 min: 100% B; 10.5 min: 100% B, with 4.5 min of re-equilibration time. MS detection was performed using an Agilent 6230 TOF accurate mass spectrometer with Dual JetStream source operating in positive ionization mode. MS parameters were: gas temp 250° C.; gas flow: 13 L/min; nebulizer pressure: 45 psig; sheath gas temp: 225° C.; sheath gas flow: 12 L/min; VCap: 3,500 V; Fragmentor: 175 V; Skimmer: 65 V; Octopole RF: 750 V. Active mass axis correction was performed using a second nebulizer and pyridine (80.049480) and roxithromycin (837.53185). Data was acquired from m/z 50-1700 at 1.5 spectra/sec. Accurate mass (±20 ppm) and retention time was confirmed relative to the pure standards. Data analysis was performed using MassHunter software (Agilent, Santa Clara Calif.).

human leukemic cells [6] = assay: Proliferation / growth of human leukemic cell lines cultured with compound; format: cell-based; details: for growth of human AML cells in vitro: indicated leukemic cell lines (FIG. 17C, 18C)
Experimental: The average and STDEV of relative cell proliferation are shown.
(§2) Mouse AML cell lines, human AML cell lines, iMEF cell line and 3T3 cell line were infected with virus encoding Cas9 (Addgene 52962, Watertown Mass.) followed with blastcitidin selection to generate Cas9 cell lines. All viral sgRNA infection experiments were performed on Cas9 cell lines. All viral shRNA infection experiments were performed on cell lines carrying rtTA3. Mouse leukemic cell lines including Nras(G12D)/MLL-AF9, MLL-AF9, Nras(G12D)/IDH, Nras(G12D)/NPM1, and IDH/Flt3 were cultured in RPMI medium supplemented with 10% Fetal Bovine Serum (FBS), L-glutamine, penicillin streptomycin, recombinant mouse SCF, IL-3 and IL-6. Human leukemic cell lines MOLM13, M12, Semk2, THP1, and K562 were cultured in RPMI medium supplemented with 10% FBS, L-glutamine, penicillin, and streptomycin. Vitamin B6 depleted medium (VB6−) was prepared by customized pyridoxin (−) RPMI (Gibco, Gaithersburg, Md.) with 10% dialyzed FBS, L-glutamine, penicillin, and streptomycin. Pyridoxin hydrochloride (Sigma, St Louis Mo.) was added back to VB6(−) medium to make the VB6 (+) medium used for leukemia and MEF culture. Control or gene targeting sgRNAs or shRNAs were delivered by lentivirus. Spin infections were performed at 37° C. and 1500 RPM for 60 minutes. After spin infection, viral supernatants were substituted with leukemic cell culture medium. For compound treatment, isoniazid was added in culture medium at indicated concentrations.
(§3) For competition and cell proliferation experiments, mouse or human leukemic cells were infected with viruses encoding sgRNAs or shRNAs. Spin infections were performed at 37 degree and 1500 RPM for 60 minutes. After spin infection, viral supernatants were substituted with leukemic cell culture medium. GFP+ percentage or cell number was monitored during culture using guava flow cytometer. The absolute cell number was measured by using flow cytometry absolute count standard (Bangs Laboratories Inc., Fishers Ind.). The experimental results were analyzed by guavasoft software.

bone marrow HSPCs = assay: Proliferation of bone marrow HSPCs cultured with compound; format: cell-based, mouse
Excerpt: The average and STDEV of relative cell proliferation of 3 replicates are shown.
Bone marrow hematopoietic stem and progenitor cell isolation, culture, and compound treatment. For isolation of bone marrow cells, the bone marrow from the femur and tibia was flushed into ice cold PBS buffer. After red blood cell lysis with ammonium chloride (STEMCELL 07850, Vancouver Canada), the bone marrow cells were resuspended with PBS and filtered into a round bottom tube with cell strainer cap. The hematopoietic cells lineages were stained with biotin mouse lineage panel (BD Biosciences 559971, San Jose Calif.), then isolated by magnetic beads separation. For c-Kit positive cells, mouse hematopoietic cells were isolated from bone marrow using MACS CD117 isolation system. Purified bone marrow cells were cultured in RPMI medium supplemented with recombinant mouse SCF, IL-3, and IL-6. Control or Pdxk targeting sgRNAs or shRNAs were delivered by lentivirus. Spin infections were performed at 37 degree and 1500 RPM for 60 minutes. After spin infection, viral supernatants were substituted with leukemic cell culture medium. For compound treatment, isoniazid was added in culture at indicated concentrations.

PLP = assay: Intracellular PLP levels by HPLC-MS in Nras(G12D)/MLL-AF9 leukemic cells cultured with isoniazid; format: cell-based, mouse; details: day 5 of culture, HPLC-MS (FIG. 2E)
Experimental: The abundance of PLP was measured by high-performance liquid chromatography-mass spectrometry (HPLC-MS) and normalized to the level [^3D]-labeled PLP (internal control). The average and STDEV are shown. Western blot analysis was performed to measure the expression levels of PDXK protein.
as §1
In each case, 2 million cells were collected by centrifugation at 440×g, media was aspirated and 1004 of ice-cold 10% trichloroacetic acid with or without 100 ng/mL d3-pyridoxal (d3-PL), d3-pyridoxine (d3-PN), d3-pyridoxamine (d3-PM), d3-pyridoxal phosphate (d3-PLP) (IsoSciences LLC, Ambler Pa.) was added for metabolite extraction. For experiments involving isoniazid treatment, cells were washed once with PBS to remove residual drug and minimize post-lysis reactions between isoniazid and PLP, which was confirmed by monitoring the d3-PLP internal standard. […]

mouse leukemic cells = assay: Proliferation of mouse leukemic cell lines cultured with compound; format: cell-based; details: mouse leukemic cell lines with different genetic drivers, day 6 (FIG. 1I)
Experimental: as §2, with “Pyridoxin hydrochloride (Sigma, St Louis Mo.) was added back to VB6(−) medium to make the VB6 (+) medium used for leukemia and MEF culture. Control or gene targeting sgRNAs or shRNAs were delivered by lentivirus. Spin infections were performed at 37° C. and 1500 RPM for 60 minutes. After spin infection, viral supernatants were substituted with leukemic cell culture medium. For compound treatment, isoniazid was added in culture medium at indicated concentrations.” left out
as §3, with “Spin infections were performed at 37 degree and 1500 RPM for 60 minutes. After spin infection, viral supernatants were substituted with leukemic cell culture medium.” left out

SMILES: CCCCCCC(=O)CCCCCC/C=C/C[C@@H](O)[C@H](O)[C@@](N)(CO)C(=O)O [myriocin]
viability of leukemic cells in vitro [1]: reduced the viability
sensitivity of HL60 cells to treatment [2]: less sensitive

SMILES: NC(=O)C[C@H](N)C(=O)O [asparagine]
rescue of proliferative block produced by isoniazid [3]: partially rescued

SMILES: NCCCCN [putrescine]
rescue of proliferative block produced by isoniazid [3]: partially rescued

SMILES: NOCC(=O)O [AOA, aminooxyacetic acid]
animal survival [4]: extended survival
leukemia disease progression (luciferase signal) [4]: significantly delayed leukemia disease maintenance
viability of leukemic cells in vitro [1]: reduced the viability
viability of leukemic cells in vitro (human leukemic cells [5]): reduced the viability

SMILES: O=c1ccn([C@@H]2O[C@H](CO)[C@@H](O)[C@H]2O)c(=O)[nH]1 [uridine]
rescue of proliferative block produced by isoniazid [3]: partially rescued

SMILES: COCc1c(CO)cnc(C)c1O [gingkotoxin]
PDXK inhibition (PDXK): can inhibit PDXK
intracellular levels of PLP (PDXK): reduced intracellular levels of PLP
intracellular levels of PLP (PDXK; listed as ginkgotoxin): reduce intracellular levels of PLP
growth of human AML cells in vitro (human leukemic cells [6]): suppressed tumor growth
growth of human AML cells in vitro (human leukemic cells [6]; listed as ginkgotoxin): can suppress the growth
proliferation of bone marrow lineage negative HSPCs (bone marrow HSPCs; bone marrow lineage negative HSPCs, day 6 (FIG. 26A-26B)): little effect
animal survival [4]: improved survival
leukemia disease progression (luciferase signal) [4]: slowed down disease progression

PDXK inhibition (PDXK): can nhibit PDXK
intracellular levels of PLP (PDXK): reduced intracellular levels of PLP
SMILES: CC[C@H](CO)Nc1nc(N(C)Cc2ccccc2)c2ncn(C(C)C)c2n1 [aftin-4]
growth of human AML cells in vitro (human leukemic cells [6]): can suppress the growth; also recorded: inhibited the growth

SMILES: NNC(=O)c1ccncc1 [isoniazid]
intracellular PLP levels (PLP): reduced intracellular PLP levels
proliferation of mouse leukemic cells (mouse leukemic cells): blocked proliferation
proliferation of human leukemic cells (human leukemic cells [6]; human leukemic cell lines, day 6 of culture (FIG. 7G, 25A-25C)): blocked proliferation
proliferation of bone marrow HSPCs (bone marrow HSPCs): only a subtle reduction
proliferation of bone marrow lineage negative HSPCs (bone marrow HSPCs): little effect
animal survival [4]: produced a survival advantage
leukemia disease progression (luciferase signal) [4]: delayed disease progression
reduction of PLP in plasma and bone marrow cells ([4]; isoniazid 90 mg/kg intraperitoneally daily, day 12 post transplant, HPLC-MS (FIG. 13B)): ~25%
